Measured values as given in PMC6155021, “Ancient and modern anticonvulsants act synergistically in a KCNQ potassium channel binding pocket” (Nature Communications, 2018).
pEC50: −log10 of the molar value.

Legend:
Format in all cases: cell-based
[1] = target: KCNQ3* (KCNQ3-A315T) (Homo sapiens, UniProt O43525, A315T); assay: cell-based; conditions: KCNQ3*
Excerpt: (§1) cRNA transcripts encoding human KCNA1, KCNQ1, KCNQ2, KCNQ3, KCNQ4, or KCNQ5 were generated by in vitro transcription using the T7 polymerase message machine kit (Thermo Fisher Scientific), after vector linearization, from cDNA sub-cloned into plasmids incorporating X. laevis β-globin 5′ and 3′ UTRs flanking the coding region to enhance translation and cRNA stability. cRNA was quantified by spectrophotometry. Mutant cDNAs were generated by site-directed mutagenesis using a QuikChange kit according to manufacturer’s protocol (Stratagene, San Diego, CA) and corresponding cRNAs prepared as above. Defolliculated stage V and VI X. laevis oocytes (Ecocyte Bioscience, Austin, TX) were injected with Kv channel α subunit cRNAs (10 ng total per oocyte). Oocytes were incubated at 16 °C in Barth’s saline solution (Ecocyte) containing penicillin and streptomycin, with daily washing, for 3–5 days prior to two-electrode voltage-clamp (TEVC) recording.
(§2) Oocytes were placed in a small-volume oocyte bath (Warner) and viewed with a dissection microscope. Chemicals were sourced from Sigma. Bath solution was (in mM): 96 NaCl, 4 KCl, 1 MgCl2, 1 CaCl2, 10 HEPES (pH 7.6). […] MTX (DMSO), sorbic acid (ethanol), and glutaconic acid (molecular grade H2O) were stored at −20 °C as 1 M stocks. Oleamide was stored as a 1 mM stock in ethanol at 4 °C. Palmitic acid was conjugated with bovine serum albumin as a 1 mM stock and stored at −20 °C. All compounds were diluted to working concentrations each experimental day. All compounds were introduced to the recording bath via gravity perfusion at a constant flow of 1 ml/min for 3 min prior to recording. Pipettes were of 1–2 MΩ resistance when filled with 3 M KCl. Currents were recorded in response to pulses between −80 and +40 mV at 20 mV intervals, or a single pulse to +40 mV, from a holding potential of −80 mV, to yield current–voltage relationships, current magnitude, and for quantifying activation rate. TEVC data analysis was performed with Clampfit10.2 (Molecular Devices) and Graphpad Prism software (GraphPad, San Diego, CA, USA); values are stated as mean ± SEM. Normalized tail currents were plotted versus prepulse voltage and fitted with a single Boltzmann function:1 g=A1-A2/1+expV12-Vy+A2, where g is the normalized tail conductance, A1 is the initial value at −∞, A2 is the final value at +∞, V1/2 is the half-maximal voltage of activation, and Vs the slope factor. Activation and deactivation kinetics were fitted with single-exponential functions.

[2] = target: KCNA1 (Homo sapiens, UniProt Q09470); assay: Two-electrode voltage-clamp of KCNA1 in Xenopus oocytes; conditions: MTX concentration not given; IVA 500 µM
Excerpt: as §1
as §2, with “TEVC data analysis was performed with Clampfit10.2 (Molecular Devices) and Graphpad Prism software (GraphPad, San Diego, CA, USA); values are stated as mean ± SEM. Normalized tail currents were plotted versus prepulse voltage and fitted with a single Boltzmann function:1 g=A1-A2/1+expV12-Vy+A2, where g is the normalized tail conductance, A1 is the initial value at −∞, A2 is the final value at +∞, V1/2 is the half-maximal voltage of activation, and Vs the slope factor. Activation and deactivation kinetics were fitted with single-exponential functions.” left out

[3] = target: KCNQ2 (Homo sapiens, UniProt O43526); assay: Two-electrode voltage-clamp of homomeric KCNQ2 in Xenopus oocytes
Excerpt: as §1, §2

Sequence of KCNQ3* (KCNQ3-A315T) (O43525 whole entry A315T, looked up): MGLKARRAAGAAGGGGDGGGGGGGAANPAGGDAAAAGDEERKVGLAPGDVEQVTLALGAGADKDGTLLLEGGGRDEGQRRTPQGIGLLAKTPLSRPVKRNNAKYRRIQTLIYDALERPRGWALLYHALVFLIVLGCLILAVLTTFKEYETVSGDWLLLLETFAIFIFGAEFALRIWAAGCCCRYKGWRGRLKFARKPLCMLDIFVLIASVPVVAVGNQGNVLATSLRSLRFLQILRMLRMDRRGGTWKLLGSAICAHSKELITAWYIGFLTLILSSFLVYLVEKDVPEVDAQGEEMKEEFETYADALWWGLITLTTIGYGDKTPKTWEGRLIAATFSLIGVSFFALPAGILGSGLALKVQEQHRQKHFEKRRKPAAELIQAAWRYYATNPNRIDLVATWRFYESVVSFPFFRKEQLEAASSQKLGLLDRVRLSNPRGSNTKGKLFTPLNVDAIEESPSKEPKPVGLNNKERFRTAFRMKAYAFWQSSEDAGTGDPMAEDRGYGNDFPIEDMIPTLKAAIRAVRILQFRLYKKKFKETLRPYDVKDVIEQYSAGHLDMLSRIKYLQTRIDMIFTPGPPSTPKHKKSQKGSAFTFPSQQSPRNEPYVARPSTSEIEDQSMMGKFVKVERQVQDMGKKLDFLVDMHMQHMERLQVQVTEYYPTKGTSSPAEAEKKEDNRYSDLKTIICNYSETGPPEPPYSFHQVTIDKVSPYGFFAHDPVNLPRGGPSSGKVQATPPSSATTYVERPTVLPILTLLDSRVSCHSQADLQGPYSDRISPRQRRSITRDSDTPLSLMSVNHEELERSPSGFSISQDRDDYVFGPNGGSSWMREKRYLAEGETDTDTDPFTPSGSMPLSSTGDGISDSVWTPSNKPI
Sequence of KCNA1 (Q09470 whole entry): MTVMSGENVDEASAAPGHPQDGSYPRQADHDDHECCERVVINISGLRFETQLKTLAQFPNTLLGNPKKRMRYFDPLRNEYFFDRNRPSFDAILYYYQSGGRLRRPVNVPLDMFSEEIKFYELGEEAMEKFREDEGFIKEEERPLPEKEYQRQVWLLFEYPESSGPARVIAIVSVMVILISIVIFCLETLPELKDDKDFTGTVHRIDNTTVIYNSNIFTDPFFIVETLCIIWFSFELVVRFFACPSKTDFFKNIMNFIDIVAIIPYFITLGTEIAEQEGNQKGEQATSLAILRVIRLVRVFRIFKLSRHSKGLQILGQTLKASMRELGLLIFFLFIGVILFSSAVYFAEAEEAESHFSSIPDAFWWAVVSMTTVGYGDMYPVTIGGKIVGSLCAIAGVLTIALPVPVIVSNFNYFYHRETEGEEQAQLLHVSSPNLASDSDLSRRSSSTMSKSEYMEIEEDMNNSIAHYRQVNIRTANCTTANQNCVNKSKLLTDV

## CC(=O)c1c(O)c(C)c(O)c(Cc2c(O)c3c(c(C(=O)/C=C/c4ccccc4)c2O)OC(C)(C)C=C3)c1O [MTX, mallotoxin]
[1]; 1 µM
  τ act, -40 mV: 552 ± 98 ms
  τ deact, -80 mV: 290 ± 51 ms
[1]; 3 µM
  Non-normalized tail current V0.5: -57.4 ± 5.3 mV
  Normalized tail current V0.5: -57.3 ± 1.4 mV
  τ act, -40 mV: 489 ± 55 ms
  τ deact, -80 mV: 263 ± 29 ms
[1]; 10 µM
  Non-normalized tail current V0.5: -59.5 ± 4.2 mV
  Normalized tail current V0.5: -59.5 ± 1.0 mV
  τ act, -40 mV: 421 ± 26 ms
  τ deact, -80 mV: 244 ± 17 ms
[1]; 30 µM
  Non-normalized tail current V0.5: -62.1 ± 3.9 mV
  Normalized tail current V0.5: -62.3 ± 1.2 mV
  shift in midpoint voltage of activation: −9 mV
  τ act, -40 mV: 388 ± 20 ms
  τ deact, -80 mV: 240 ± 18 ms
[1]; 100 µM
  Non-normalized tail current V0.5: -65.2 ± 3.9 mV
  Normalized tail current V0.5: -66.2 ± 2.1 mV
  τ act, -40 mV: 403 ± 36 ms
  τ deact, -80 mV: 269 ± 30 ms
[2]
  effect on KCNA1 currents: no effect
[3]
  pEC50: 5.19
[3]; KCNQ2, 0.1 µM
  Non-normalized tail current V0.5: -50.0 ± 0.4 mV
  Normalized tail current V0.5: -50.0 ± 0.35 mV
  Slope: 7.4 ± 0.23 mV
  τ act, -40 mV: 538 ± 20 ms
  τ deact, -80 mV: 294 ± 10 ms
[3]; KCNQ2, 1 µM
  Non-normalized tail current V0.5: -51.7 ± 2.0 mV
  Normalized tail current V0.5: -51.4 ± 0.46 mV
  Slope: 7.4 ± 0.31 mV
  τ act, -40 mV: 490 ± 23 ms
  τ deact, -80 mV: 271 ± 11 ms
[3]; KCNQ2, 3 µM
  Non-normalized tail current V0.5: -52.1 ± 2.5 mV
  Normalized tail current V0.5: -54.9 ± 0.41 mV
  Slope: 7.3 ± 0.33 mV
  τ act, -40 mV: 417 ± 25 ms
  τ deact, -80 mV: 237 ± 12 ms
[3]; KCNQ2, 10 µM
  Non-normalized tail current V0.5: -61.7 ± 2.7 mV
  Normalized tail current V0.5: -61.2 ± 0.87 mV
  Slope: 7.0 ± 1.0 mV
  τ act, -40 mV: 341 ± 22 ms
  τ deact, -80 mV: 199 ± 11 ms
[3]; KCNQ2, 30 µM
  Non-normalized tail current V0.5: -68.7 ± 2.7 mV
  Normalized tail current V0.5: -68.5 ± 1.5 mV
  Slope: 7.4 ± 0.6 mV
  shift in midpoint voltage of activation: −24 mV
  τ act, -40 mV: 301 ± 19 ms
  τ deact, -80 mV: 173 ± 10 ms
[3]; KCNQ2, 100 µM
  Non-normalized tail current V0.5: -66.2 ± 2.7 mV
  Normalized tail current V0.5: -66.0 ± 2.7 mV
  Slope: 8.1 ± 1.2 mV
  τ act, -40 mV: 353 ± 22 ms
  τ deact, -80 mV: 190 ± 8 ms
